Test results from patent publication US7786141B2 (Vertex Pharmaceuticals Incorporated, priority 2004, dated 2010).
Where two headings read alike, the source gives them in different places.

Columns and labels:
[1] = biological target: T1, M1 muscarinic receptor (Homo sapiens, UniProt P11229); assay: Functional mobilization of intracellular calcium (FLIPR) in M1-CHO cells; type: cell-based
T1 construct: expressed in transfected cells; host or cells: CHO (M1-CHO)
T1 sequence (P11229 1-460): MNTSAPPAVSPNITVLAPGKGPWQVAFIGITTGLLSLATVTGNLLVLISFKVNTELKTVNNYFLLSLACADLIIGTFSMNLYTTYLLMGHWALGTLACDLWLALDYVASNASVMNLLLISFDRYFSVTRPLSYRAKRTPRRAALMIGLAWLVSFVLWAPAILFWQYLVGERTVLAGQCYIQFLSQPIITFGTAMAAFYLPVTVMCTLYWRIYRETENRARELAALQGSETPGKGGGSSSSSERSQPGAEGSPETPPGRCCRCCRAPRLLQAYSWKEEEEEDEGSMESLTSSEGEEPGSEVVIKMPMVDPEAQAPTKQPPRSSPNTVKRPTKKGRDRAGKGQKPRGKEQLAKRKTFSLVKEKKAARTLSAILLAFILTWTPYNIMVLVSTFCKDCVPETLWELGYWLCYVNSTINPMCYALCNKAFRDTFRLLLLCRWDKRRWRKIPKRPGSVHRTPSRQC
Outline: (§1)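 Two modes: direct compound addition for agonism, or 15 min compound pre-incubation (or co-application) before carbachol at EC80 for inhibition. Calcium signal from Fluo-3 AM or Calcium 3 dye in CHO cells, 1 mM probenecid, pH 7.4, read 60 sec at 488/540 nm; DMSO 0.5% final.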

[2] = biological target: T2, M4 muscarinic receptor (Homo sapiens, UniProt P08173); assay: Functional mobilization of intracellular calcium (FLIPR) in M4-CHO cells; type: cell-based
T2 construct: expressed in transfected cells; host or cells: CHO (M4-CHO)
T2 sequence (P08173 1-479): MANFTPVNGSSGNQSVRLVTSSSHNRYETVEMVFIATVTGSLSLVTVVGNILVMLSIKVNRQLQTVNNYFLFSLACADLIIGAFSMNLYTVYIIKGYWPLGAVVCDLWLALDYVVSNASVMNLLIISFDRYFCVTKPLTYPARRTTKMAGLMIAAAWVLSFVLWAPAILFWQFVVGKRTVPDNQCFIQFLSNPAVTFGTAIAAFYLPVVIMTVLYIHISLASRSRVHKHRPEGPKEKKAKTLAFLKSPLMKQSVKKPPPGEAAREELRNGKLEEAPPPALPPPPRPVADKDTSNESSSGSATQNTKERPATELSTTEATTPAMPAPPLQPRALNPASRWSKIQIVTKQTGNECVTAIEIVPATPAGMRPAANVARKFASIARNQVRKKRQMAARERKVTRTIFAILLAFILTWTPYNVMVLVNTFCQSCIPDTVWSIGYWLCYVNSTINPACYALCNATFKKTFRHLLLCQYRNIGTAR
Outline: as §1

[3] = M1 receptor, calcium mobilization
[4] = M1 receptor, calcium mobilization, read-out: M1 Efficacy
[5] = M4 receptor, calcium mobilization
[6] = M4 receptor, calcium mobilization, read-out: M4 Efficacy
[7] = Table 4, 100% efficacy is the maximum response obtained with the Carbachol control
[8] = Table 4, modulating M1 receptor
[9] = Table 4, modulating M4 receptor
[10] = Table 4, M1 receptor, calcium mobilization (FLIPR)
[11] = Table 4, M4 receptor, calcium mobilization (FLIPR)
[12] = M1-CHO cells, calcium mobilization (FLIPR)
[13] = M1-CHO cells, calcium mobilization (FLIPR), read-out: M1 Efficacy
[14] = M4-CHO cells, calcium mobilization (FLIPR)
[15] = M4-CHO cells, calcium mobilization (FLIPR), read-out: M4 Efficacy

Compound	Emax [1, 7]	M1 Activity [1, 8]	Emax [2, 7]	M4 Activity [2, 9]	further results
CCOC(=O)N1CCC(N2CCC3(CC2)CN(C(C)=O)c2ccc(F)cc23)C1 (stereo not shown) [compound 113]					M1 Activity [1, 3]: xxx (activity was measured to be less than 0.1 μM); Emax [1, 4]: 65 to 85%; M4 Activity [2, 5]: x (activity was measured to be greater than 1.0 μM); Emax [2, 6]: < 65%
CN(C)C(=O)N1CC2(CCN(C3CCN(c4ccsc4)CC3)CC2)c2cc(F)ccc21 [compound 561]	25 to 100%	x (activity was measured to be greater than 5.0 μM)	25 to 100%	xx (activity was measured to be between 2.0 μM and 5.0 μM)	
O=C1CCCCC1N1CC2(CCN(C3CC4CCC(C4)C3)CC2)c2cc(F)ccc21 (stereo not shown) [compound 621]	25 to 100%	xx (activity was measured to be between 2.0 μM and 5.0 μM)	25 to 100%	xxx (activity was measured to be less than 2.0 μM)	
O=C1CC2(CCN([C@@H]3C[C@H]4CC[C@@H]3C4)CC2)c2ccccc21 [compound 732]	25 to 100%	x (activity was measured to be greater than 5.0 μM)	25 to 100%	xx (activity was measured to be between 2.0 μM and 5.0 μM)	
CC(=O)N[C@H]1CCC2(CCN([C@H]3CC4CC[C@H](C4)C3)CC2)c2ccccc21 [compound 861]	25 to 100%		25 to 100%		M1 Activity [1, 10]: xxx (activity was measured to be less than 2.0 μM); M4 Activity [2, 11]: xxx (activity was measured to be less than 2.0 μM)
COCCN1CC2(CCN(C3CC4CCC(C4)C3)CC2)c2cc(F)ccc21 (stereo not shown) [compound 884]	25 to 100%		25 to 100%		M1 Activity [1, 10]: xxx (activity was measured to be less than 2.0 μM); M4 Activity [2, 11]: xxx (activity was measured to be less than 2.0 μM)
CC(=O)N1CC2(CCN(C3CCN(C(=O)OCC(F)F)CC3)CC2)c2cc(C)ccc21 [compound 829]	25 to 100%		25 to 100%		M1 Activity [1, 10]: xxx (activity was measured to be less than 2.0 μM); M4 Activity [2, 11]: xxx (activity was measured to be less than 2.0 μM)
CC(=O)NC1CC2(CCN(CC3CC4C=CC3C4)CC2)c2ccccc21 (stereo not shown) [compound 305]					M1 Activity [1, 3]: x (activity was measured to be greater than 1.0 μM); M1 Efficacy [1, 3]: x (efficacy was calculated to be less than 65%); M4 Activity [2, 5]: x (activity was measured to be greater than 1.0 μM); M4 Efficacy [2, 5]: x (efficacy was calculated to be less than 65%)
CS(=O)(=O)N[C@H]1CCC2(CCN([C@H]3CC4CC[C@H](C4)C3)CC2)c2ccccc21 [compound 668]	25 to 100%	xxx (activity was measured to be less than 2.0 μM)	25 to 100%	xxx (activity was measured to be less than 2.0 μM)	
CCOC(=O)N1CCC(N2CCC3(CC2)CN(C(C)=O)c2c(-c4ccc(F)cc4)cccc23)CC1 [compound 992]	25 to 100%		25 to 100%		M1 Activity [1, 10]: x (activity was measured to be greater than 5.0 μM); M4 Activity [2, 11]: x (activity was measured to be greater than 5.0 μM)
CCOC(=O)N1CCC(N2CCC3(CC2)CN(C(C)=O)c2c(-c4ccsc4)cccc23)CC1 [compound 956]	25 to 100%		< 25%		M1 Activity [1, 10]: x (activity was measured to be greater than 5.0 μM); M4 Activity [2, 11]: x (activity was measured to be greater than 5.0 μM)
CCOC(=O)N1CCC(N2CCC3(CC2)CN(C(C)=O)c2ccc(-c4cccnc4)cc23)CC1 [compound 234]					M1 Activity [1, 3]: xxx (activity was measured to be less than 0.1 μM); Emax [1, 4]: 65 to 85%; M4 Activity [2, 5]: xxx (activity was measured to be less than 0.1 μM); Emax [2, 6]: 65 to 85%
CCOC(=O)N1CCC(N2CCC3(CC2)CN(C(C)=O)c2c(F)cccc23)CC1 [compound 381]					EC50 [1, 12]: < 100 nM; Emax [1, 13]: 65 to 85%; EC50 [2, 14]: > 1000 nM; Emax [2, 15]: < 65%
CC(=O)N[C@H]1CCC2(CCN(CCC3CCCCC3)CC2)c2ccccc21 [compound 568]	25 to 100%	xxx (activity was measured to be less than 2.0 μM)	< 25%	xxx (activity was measured to be less than 2.0 μM)	
CCOC(=O)N1CCC(N2CCC3(CC2)CN(c2ccncc2)c2ccc(F)cc23)CC1 [compound 517]	25 to 100%	xxx (activity was measured to be less than 2.0 μM)	25 to 100%	xxx (activity was measured to be less than 2.0 μM)	
CC(C)OC(=O)N1C2CCC1CC(N1CCC3(CC1)CN(C(=O)N(C)C)c1ccc(F)cc13)C2 (stereo not shown) [compound 108]					M1 Activity [1, 3]: xxx (activity was measured to be less than 0.1 μM); Emax [1, 4]: 65 to 85%; M4 Activity [2, 5]: xx (activity was measured to be between 0.1 μM and 1.0 μM); Emax [2, 6]: < 65%
Cc1ccc2c(c1)C1(CCN(CC3CC4CCC3C4)CC1)CN2C(=O)OC(C)(C)C (stereo not shown) [compound 382]					EC50 [1, 12]: < 100 nM; Emax [1, 13]: 65 to 85%; EC50 [2, 14]: > 1000 nM; Emax [2, 15]: 65 to 85%
C#CCOC(=O)N1CCC(CN2CCC3(CC2)CN(C(C)=O)c2ccc(F)cc23)CC1 [compound 316]					M1 Activity [1, 3]: x (activity was measured to be greater than 1.0 μM); Emax [1, 4]: < 65%; M4 Activity [2, 5]: x (activity was measured to be greater than 1.0 μM); Emax [2, 6]: < 65%
C#CCOC(=O)N1CC[C@@H](CN2CCC3(CC2)CN(C(C)=O)c2cccc(C)c23)C1 [compound 564]	25 to 100%	xxx (activity was measured to be less than 2.0 μM)	25 to 100%	xxx (activity was measured to be less than 2.0 μM)	
c1ccc2c(c1)CCC21CCN(CC2CCOCC2)CC1 [compound 18]					M1 Activity [1, 3]: xxx (activity was measured to be less than 0.1 μM); Emax [1, 4]: < 65%; M4 Activity [2, 5]: xx (activity was measured to be between 0.1 μM and 1.0 μM); Emax [2, 6]: > 85%
COC(=O)N1CCC(N2CCC3(CC2)CN(C(C)=O)c2ccccc23)CC1 [compound 753]	25 to 100%	xx (activity was measured to be between 2.0 μM and 5.0 μM)	25 to 100%	xx (activity was measured to be between 2.0 μM and 5.0 μM)	
Clc1ccc2c(c1)C1(CCO2)CCN(CC2CCOCC2)CC1 [compound 288]					M1 Activity [1, 3]: x (activity was measured to be greater than 1.0 μM); Emax [1, 4]: < 65%; M4 Activity [2, 5]: x (activity was measured to be greater than 1.0 μM); Emax [2, 6]: < 65%
CN(C)C(=O)N1CC2(CCN(C3CCN(c4ccccc4F)CC3)CC2)c2cc(F)ccc21 [compound 711]	25 to 100%	xx (activity was measured to be between 2.0 μM and 5.0 μM)	< 25%	x (activity was measured to be greater than 5.0 μM)	
CCOC(=O)N1CCC(N2CCC3(CC2)CN(c2ccc(C)nn2)c2ccc(F)cc23)CC1 [compound 942]	> 100%		25 to 100%		M1 Activity [1, 10]: xxx (activity was measured to be less than 2.0 μM); M4 Activity [2, 11]: xxx (activity was measured to be less than 2.0 μM)
CN(C)C(=O)NC1CCC2(CCN(CC3CC4C=CC3C4)CC2)c2ccccc21 (stereo not shown) [compound 998]	< 25%		25 to 100%		M1 Activity [1, 10]: x (activity was measured to be greater than 5.0 μM); M4 Activity [2, 11]: xxx (activity was measured to be less than 2.0 μM)
